Protocol: The SOD activity of a chemical compound can be determined by the NBT (nitro blue tetrazolium) reduction method according to the technique described by Beauchamp and Fridovich [Anal. Biochem., 44(1), 276-87, (1971)].
The test is carried out at 25° C. in a final volume of buffer of 0.8 ml (50 mM TRIS/HCl, pH 7.6), containing 22 μM of xanthine, 500 U/ml of catalase and 0.2 U/ml of xanthine oxidase. The reduction of NBT, in the presence of 1.5 μg of Mangafodipir or, as a control, in the absence of Mangafodipir, is measured every 30 seconds for 5 minutes. One SOD unit (U SOD) is defined by the amount of enzyme capable of inhibiting the NBT reduction rate by 50%.

Substance: Manganese dipyridoxyl phosphate [Mangafodipir]
- rate of reduction of NBT (1.5 μg of Mangafodipir in reaction mixture, control 0.0302/minute): 0.01556 min⁻¹
- SOD activity (1 U SOD inhibits NBT reduction rate by 50%): 680 U SOD per milligram of Mangafodipir

Reference: US7351722B2, “Use of Mangafodipir for treating oxidative stress effects” (Universite Rene Descartes (Paris V), priority 2001, dated 2008)
